The text below walks through data of paper PMC11506924, “Triterpenoid Saponins and Flavonoid Glycosides from the Flower of Camellia flavida and Their Cytotoxic and α-Glycosidase Inhibitory Activities” (International Journal of Molecular Sciences, 2024).

Series [1] in a line: MTT cytotoxicity assay, HNEpC (normal cells). To be noted: HNEpC cells (normal nasal epithelial cells), normal human nasal epithelial cells, 24 h exposure, n = 8. In kind it is cell-based. An excerpt:
(§1) The human cervical cancer cell line Hela, the human lung adenocarcinoma cell line A549, the human breast cancer cell lines MCF-7 and MDA-MB-231, the human hepatoma cell lines BEL-7402 and Hep G2, the human embryonic lung fibroblast cell line MRC-5, and the human nasal epithelial cell line HNEpC were all sourced from the China Center for Type Culture Collection (CCTCC, Wuhan University, Hubei, China). Hela, A549, MCF-7, MDA-MB-231, BEL-7402, MRC-5, and Hep G2 cells were maintained in DMEM media, while HNEpC cells were cultured in RPMI 1640. All media were supplemented with 10% FBS (v/v) and 1% penicillin-streptomycin, and cells were grown in a humidified atmosphere containing 5% CO2 at 37 °C.
(§2) The MTT assay was conducted to assess cell viability, as previously described. Cells were seeded onto 96-well plates at a density of 1 × 10^4 cells per well, with each experiment replicated eight times to ensure reproducibility. Following incubation at 37 °C for 24 h, cells were exposed to various concentrations (0.25, 0.5, 1.0, 2.0, 4.0, 8.0, 16.0, 32.0 µM) of compounds 1–10 for 24 h. Subsequently, 10 μL MTT reagent was added to each well, and the plates were incubated for a further 4 h at 37 °C, adhering strictly to the manufacturer’s instructions. The optical density (OD) values were then measured at 570 nm using a microplate reader. The cell survival rate for each compound was calculated employing the following formula: OD value of the experimental group−OD value of the blank group/OD value of the control group−OD value of Blank group×100%
(§3) Statistical analysis data from the cytotoxicity and α-glycosidase inhibitory assays were analyzed using the mean and standard deviation. The 50% cytotoxic and inhibitory concentrations were calculated and compared to the control via non-linear regression. These analyses were performed using SPSS® Statistics (Version 18.0, IBM Software, Armonk, NY, USA).
A general note: Tetrazolium dyes change colour on reduction, which living cells bring about.

A further series deals with Hela. The series is described as follows: MTT cytotoxicity assay, Hela. The format is cell-based. Particulars: Homo sapiens, 24 h exposure, ± SD, n = 8.
From the text: as §1
as §2, with “Following incubation at 37 °C for 24 h, cells were exposed to various concentrations (0.25, 0.5, 1.0, 2.0, 4.0, 8.0, 16.0, 32.0 µM) of compounds 1–10 for 24 h.” left out
as §3

Another series has as its system A549. Put plainly: MTT cytotoxicity assay, A549. The format is cell-based. Particulars: Homo sapiens, 24 h exposure, ± SD, n = 8.
From the text: as §1
as §2, with “Following incubation at 37 °C for 24 h, cells were exposed to various concentrations (0.25, 0.5, 1.0, 2.0, 4.0, 8.0, 16.0, 32.0 µM) of compounds 1–10 for 24 h.” left out
as §3

In a further series the test system is Hep G2. The series is described as follows: MTT cytotoxicity assay, Hep G2. To be noted: Homo sapiens, HepG2, 24 h exposure, ± SD, n = 8. The format is cell-based.
From the text: as §1
as §2, with “Following incubation at 37 °C for 24 h, cells were exposed to various concentrations (0.25, 0.5, 1.0, 2.0, 4.0, 8.0, 16.0, 32.0 µM) of compounds 1–10 for 24 h.” left out
as §3

The test system of the next series is BEL-7402. The series is described as follows: MTT cytotoxicity assay, BEL-7402. The format is cell-based. Particulars: Homo sapiens, 24 h exposure, ± SD, n = 8.
From the text: as §1
as §2, with “Following incubation at 37 °C for 24 h, cells were exposed to various concentrations (0.25, 0.5, 1.0, 2.0, 4.0, 8.0, 16.0, 32.0 µM) of compounds 1–10 for 24 h.” left out
as §3

For another series, the system named is MDA-MB-231. Put plainly: MTT cytotoxicity assay, MDA-MB-231. To be noted: for IC50: Homo sapiens, MDA-MB-231, MTT, 24 h exposure, ± SD, n = 8. In kind it is cell-based, human.
From the text: as §1
as §2, with “Following incubation at 37 °C for 24 h, cells were exposed to various concentrations (0.25, 0.5, 1.0, 2.0, 4.0, 8.0, 16.0, 32.0 µM) of compounds 1–10 for 24 h.” left out
as §3

The nature of series [2]: MTT cytotoxicity assay, MRC-5 (normal cells). In kind it is cell-based. To be noted: MRC-5 cells (normal embryonic lung fibroblasts), normal human embryonic lung fibroblast, 24 h exposure, n = 8.
From the text: as §1, §2, §3

In a further series the test system is MCF-7. The series is described as follows: MTT cytotoxicity assay, MCF-7. The format is cell-based. Particulars: Homo sapiens, MCF7, 24 h exposure, ± SD, n = 8.
From the text: as §1, §2, §3

With `COC(=O)C1OC(OC2CCC3(C)C(CCC4(C)C3CC=C3C5CC(C)(C)CCC5(CO)C(O)C(O)C34C)C2(C)C)C(OC2OC(CO)C(O)C(O)C2O)C(OC2OC(CO)C(O)C(O)C2OC2OC(C)C(O)C(O)C2O)C1O` [Compound 1, 3β,15α,16α,28-tetrahydroxyolean-12-en-3-O-β-D-glucopyranosyl-(1→2)-[α-L-rhamnopyranosyl-(1→2)-β-D-galactopyranosyl-(1→3)]-β-D-glucuronopyranoside methyl ester], the IC50 at 24 h in series [1] and in series [2] was over 30 µM throughout. Further, the IC50 (commonly the midpoint of a concentration-inhibition curve) with Hela is 15.1 ± 1.06 µM; with A549 it was over 30 µM; in the series on Hep G2, 25.6 ± 3.46 µM; with BEL-7402 it was 7.62 ± 1.06 µM; in the series with MDA-MB-231 it was over 30 µM; in the series on MCF-7 it was 9.06 ± 0.45 µM.

As for `CC1OC(OC2C(OC3C(O)C(C(=O)O)OC(OC4CCC5(C)C(CCC6(C)C5CC=C5C7CC(C)(C)CCC7(CO)C(=O)C(O)C56C)C4(C)C)C3OC3OC(CO)C(O)C(O)C3O)OC(CO)C(O)C2O)C(O)C(O)C1O` [Compound 3, 3β,15α,28-trihydroxyolean-12-en-16-on-3-O-β-D-glucopyranosyl-(1→2)-[α-L-rhamnopyranosyl-(1→2)-β-D-galactopyranosyl-(1→3)]-β-D-glucuronopyranoside], the half-inhibitory concentration (IC50) at 24 h in series [1] and in series [2] was over 30 µM throughout. Further, the half-maximal inhibitory concentration (IC50) is over 30 µM in the series on Hela; 23.4 ± 7.26 µM with A549; 8.77 ± 1.56 µM with Hep G2; 4.94 ± 0.41 µM in the series with BEL-7402; 10.1 ± 2.28 µM with MDA-MB-231; 1.65 ± 0.39 µM in the series on MCF-7. Moreover, in the series with MDA-MB-231 (compared with positive control), the “inhibitory effect on MDA-MB-231 cells (in words)” value is “comparable to that of cisplatin”.

For the compound `CC1OC(OC2C(OC3C(OC4C(=O)c5c(O)cc(O)cc5OC4c4ccc(O)cc4)OC(C)C(O)C3O)OC(CO)C(O)C2O)C(O)C(O)C1O` [Compound 4, (2R,3R)-3,5,7,4′-tetrahydroxyflavanone-3-O-α-L-rhamnopyranosyl-(1→2)-β-D-glucopyranosyl-(1→2)-α-L-rhamnoside], the IC50 at 24 h in series [1] and in series [2] was over 30 µM in each case. For the same compound, the IC50 in the series with Hela, in the series with A549, in the series with Hep G2, with BEL-7402, with MDA-MB-231 and in the series with MCF-7 was over 30 µM throughout.

For `CC1OC(OC2C(OC3C(O)C(C(=O)O)OC(OC4CCC5(C)C(CCC6(C)C5CC=C5C7CC(C)(C)CCC7(CO)C(O)C(O)C56C)C4(C)C)C3OC3OC(CO)C(O)C(O)C3O)OC(CO)C(O)C2O)C(O)C(O)C1O` [Compound 2, 3β,15α,16α,28-tetrahydroxyolean-12-en-3-O-β-D-glucopyranosyl-(1→2)-[α-L-rhamnopyranosyl-(1→2)-β-D-galactopyranosyl-(1→3)]-β-D-glucuronopyranoside], the 50% inhibitory concentration (IC50) at 24 h in series [1] and in series [2] was over 30 µM throughout. Moreover, the IC50 was 4.17 ± 0.85 µM with Hela; over 30 µM in the series with A549; 14 ± 3.29 µM with Hep G2; over 30 µM in the series with BEL-7402; 26.5 ± 3.07 µM in the series with MDA-MB-231; 19.2 ± 3.71 µM in the series on MCF-7.

Take `CC(=O)OC1C(O)C(C)OC(OC2C(OC3C(OC4C(=O)c5c(O)cc(O)cc5OC4c4ccc(O)cc4)OC(C)C(O)C3O)OC(CO)C(O)C2O)C1O` [Compound 5, (2R,3S)-3,5,7,4′-tetrahydroxyflavanone-3-O-[3-acetyl-O-α-L-rhamnopyranosyl-(1→2)-β-D-glucopyranosyl-(1→2)]-α-L-rhamnoside]: the IC50 at 24 h in series [1] and in series [2] was over 30 µM in each case. For the same compound, the half-inhibitory concentration (IC50) in the series on Hela is over 30 µM; in the series with A549, over 30 µM; in the series on Hep G2, 20.8 ± 3.79 µM; in the series with BEL-7402 it was over 30 µM; in the series on MDA-MB-231, over 30 µM; with MCF-7, over 30 µM.

For `CC(=O)OC1C(C)OC(OC2C(OC3C(OC4C(=O)c5c(O)cc(O)cc5OC4c4ccc(O)cc4)OC(C)C(O)C3O)OC(CO)C(O)C2O)C(O)C1O` [Compound 6, (2R,3R)-3,5,7,4′-tetrahydroxyflavanone-3-O-[4-acetyl-O-α-L-rhamnopyranosyl-(1→2)-β-D-glucopyranosyl-(1→2)]-α-L-rhamnoside], the IC50 at 24 h in series [1] and in series [2] was over 30 µM each time. In addition, the IC50 in the series with Hela is over 30 µM; in the series on A549, over 30 µM; in the series with Hep G2 it was over 30 µM; with BEL-7402, 11.4 ± 3.11 µM; in the series with MDA-MB-231, over 30 µM; in the series on MCF-7, over 30 µM.

`COc1cccc2c1C(=O)c1c(O)c3c(c(O)c1C2=O)C[C@@](O)(C(=O)CO)C[C@@H]3O[C@H]1C[C@H](N)[C@H](O)[C@H](C)O1` [doxorubicin, reference compound] came in with a half-inhibitory concentration (IC50) in the series on MCF-7 of 3.79 ± 0.26 µM.

Consider `C[C@@H]1O[C@@H](OC[C@H]2O[C@@H](Oc3c(-c4ccc(O)c(O)c4)oc4cc(O)cc(O)c4c3=O)[C@H](OC(=O)/C=C/c3ccc(O)cc3)[C@@H](O[C@@H]3OC[C@H](O)[C@H](O)[C@H]3O)[C@@H]2O)[C@H](O)[C@H](O[C@@H]2OC[C@@H](O)[C@H](O)[C@H]2O)[C@H]1O` [Compound 7, 3,5,7,3′,4′-pentahydroxyflavonol-3-O-α-L-arabinopyranosyl-(1→3)-[β-D-xylopyranosyl-(1→3)-α-L-rhamnopyranosyl-(1→6)]-2-O-p-E-coumaryl-β-D-glucopyranoside], for which the IC50 at 24 h in series [1] and in series [2] was over 30 µM throughout. In addition, the 50% inhibitory concentration (IC50) in the series with Hela, with A549, in the series on Hep G2, in the series on BEL-7402, in the series with MDA-MB-231 and in the series on MCF-7 was over 30 µM throughout.
